Like-named read-outs stand apart in the source and are kept apart here.
Legend:
DoHH2 = assay: CellTiter-Glo proliferation/viability assay; type: cell-based, human; conditions: Homo sapiens
ASK1(h) = ASK1(h) (Homo sapiens (Human), UniProt Q99683); assay: IC50 profiler radiometric kinase assay (Millipore); type: biochemical; conditions: STE
Description: (§1) In order to determine the relative enzyme selectivity of these amino naphthyridinones, representative amino naphthyridinones were evaluated for their ability to inhibit various kinases. Kinases were selected for a broad representation of the kinome (see FIG. 2: Kinases Evaluated). Compounds were evaluated using the IC50 profiler assay (Millipore), which measures substrate phosphorylation via γ-^33P-ATP transfer by the kinase of interest.
(§2) The assay directly measures the catalytic incorporation of phosphate onto kinase substrates. The kinase protein is incubated in buffer with substrate and γ-^33P-ATP. The reaction is initiated by the addition of the Mg-ATP mix. At the end of the reaction incubation time, the reaction is stopped by the addition of phosphoric acid solution and 10 μL of the reaction is spotted onto a filtermat, washed, dried and counted in scintillation fluid. […] In particular the amino naphthyridinones inhibited Abl and some but not all tested members of the Tec and Src families of tyrosine kinases, but not tyrosine-like kinases or the non-tyrosine kinases tested (See FIG. 2: Compound 1). […] Other known drugs with activity against BTK and SFKs, such as dasatinib and bosutinib, have activity against a broader array of tyrosine kinases as well as inhibiting non-tyrosine kinases (See FIG. 2: Dasatinib).

Abl(T315I)(h) = Abl(T315I)(h) (Homo sapiens (Human), UniProt P00519, T315I); assay: IC50 profiler radiometric kinase assay (Millipore); type: biochemical; conditions: TK
Description: as §1, §2

Abl(h) = Abl(h) (Homo sapiens (Human), UniProt P00519); assay: IC50 profiler radiometric kinase assay (Millipore); type: biochemical; conditions: TK
Description: as §1, §2

BTK(h) = BTK(h) (Homo sapiens (Human), UniProt Q06187); assay: IC50 profiler radiometric kinase assay (Millipore); type: biochemical; conditions: TK
Description: as §1, §2

Bmx(h) = Bmx(h) (Homo sapiens (Human), UniProt P51813); assay: IC50 profiler radiometric kinase assay (Millipore); type: biochemical; conditions: TK
Description: as §1, §2

GSK3β(h) = GSK3β(h) (Homo sapiens (Human), UniProt P49841); assay: IC50 profiler radiometric kinase assay (Millipore); type: biochemical; conditions: CMGC
Description: as §1, §2

IGF-1R(h) = IGF-1R(h) (Homo sapiens (Human), UniProt P08069); assay: IC50 profiler radiometric kinase assay (Millipore); type: biochemical; conditions: TK
Description: as §1, §2

IKKα(h) = IKKα(h) (Homo sapiens (Human), UniProt O15111); assay: IC50 profiler radiometric kinase assay (Millipore); type: biochemical; conditions: MISC
Description: as §1, §2

IKKβ(h) = IKKβ(h) (Homo sapiens (Human), UniProt O14920); assay: IC50 profiler radiometric kinase assay (Millipore); type: biochemical; conditions: MISC
Description: as §1, §2

JAK3(h) = JAK3(h) (Homo sapiens (Human), UniProt P52333); assay: IC50 profiler radiometric kinase assay (Millipore); type: biochemical; conditions: TK
Description: as §1, §2

JNK2α2(h) = JNK2α2(h) (Homo sapiens (Human), UniProt P45984); assay: IC50 profiler radiometric kinase assay (Millipore); type: biochemical; conditions: CMGC
Description: as §1, §2

KDR(h) = KDR(h) (Homo sapiens (Human), UniProt P35968); assay: IC50 profiler radiometric kinase assay (Millipore); type: biochemical; conditions: TK
Description: as §1, §2

Lck(h) = Lck(h) (Homo sapiens (Human), UniProt P06239); assay: IC50 profiler radiometric kinase assay (Millipore); type: biochemical; conditions: TK
Description: as §1, §2

MAPKAP-K2(h) = MAPKAP-K2(h) (Homo sapiens (Human), UniProt P49137); assay: IC50 profiler radiometric kinase assay (Millipore); type: biochemical; conditions: CAMK
Description: as §1, §2

MEK1(h) = MEK1(h) (Homo sapiens (Human), UniProt Q02750); assay: IC50 profiler radiometric kinase assay (Millipore); type: biochemical; conditions: STE
Description: as §1, §2

PDGFRβ(h) = PDGFRβ(h) (Homo sapiens (Human), UniProt P09619); assay: IC50 profiler radiometric kinase assay (Millipore); type: biochemical; conditions: TK
Description: as §1, §2

PDK1(h) = PDK1(h) (Homo sapiens (Human), UniProt O15530); assay: IC50 profiler radiometric kinase assay (Millipore); type: biochemical; conditions: AGC
Description: as §1, §2

Pim-1(h) = Pim-1(h) (Homo sapiens (Human), UniProt P11309); assay: IC50 profiler radiometric kinase assay (Millipore); type: biochemical; conditions: CAMK
Description: as §1, §2

Plk1(h) = Plk1(h) (Homo sapiens (Human), UniProt P53350); assay: IC50 profiler radiometric kinase assay (Millipore); type: biochemical; conditions: MISC
Description: as §1, §2

SAPK2a(h) = SAPK2a(h) (Homo sapiens (Human), UniProt Q16539); assay: IC50 profiler radiometric kinase assay (Millipore); type: biochemical; conditions: CMGC
Description: as §1, §2

SAPK2b(h) = SAPK2b(h) (Homo sapiens (Human), UniProt Q15759); assay: IC50 profiler radiometric kinase assay (Millipore); type: biochemical; conditions: CMGC
Description: as §1, §2

Src(1-530)(h) = Src(1-530)(h) (Homo sapiens (Human), UniProt P12931); assay: IC50 profiler radiometric kinase assay (Millipore); type: biochemical; conditions: TK
Description: as §1, §2

Syk(h) = Syk(h) (Homo sapiens (Human), UniProt P43405); assay: IC50 profiler radiometric kinase assay (Millipore); type: biochemical; conditions: TK
Description: as §1, §2

Tie2(h) = Tie2(h) (Homo sapiens (Human), UniProt Q02763); assay: IC50 profiler radiometric kinase assay (Millipore); type: biochemical; conditions: TK
Description: as §1, §2

mTOR(h) = mTOR(h) (Homo sapiens (Human), UniProt P42345); assay: IC50 profiler radiometric kinase assay (Millipore); type: biochemical; conditions: Lipid/Atypical
Description: as §1, §2

CDK9/cyclinT1(h) = CDK9/cyclinT1(h) (Homo sapiens (Human), UniProt P50750); assay: IC50 profiler radiometric kinase assay (Millipore); type: biochemical; conditions: CMGC
[1] = target: PI3 Kinase (p110β/p85α)(h) (Homo sapiens (Human), UniProt P42338); assay: IC50 profiler radiometric kinase assay (Millipore); type: biochemical; conditions: Lipid/Atypical
[2] = DOHH-2, 48 hrs, read-out: DoHH2 EC50

KDR(h), sequence (P35968 20-1356): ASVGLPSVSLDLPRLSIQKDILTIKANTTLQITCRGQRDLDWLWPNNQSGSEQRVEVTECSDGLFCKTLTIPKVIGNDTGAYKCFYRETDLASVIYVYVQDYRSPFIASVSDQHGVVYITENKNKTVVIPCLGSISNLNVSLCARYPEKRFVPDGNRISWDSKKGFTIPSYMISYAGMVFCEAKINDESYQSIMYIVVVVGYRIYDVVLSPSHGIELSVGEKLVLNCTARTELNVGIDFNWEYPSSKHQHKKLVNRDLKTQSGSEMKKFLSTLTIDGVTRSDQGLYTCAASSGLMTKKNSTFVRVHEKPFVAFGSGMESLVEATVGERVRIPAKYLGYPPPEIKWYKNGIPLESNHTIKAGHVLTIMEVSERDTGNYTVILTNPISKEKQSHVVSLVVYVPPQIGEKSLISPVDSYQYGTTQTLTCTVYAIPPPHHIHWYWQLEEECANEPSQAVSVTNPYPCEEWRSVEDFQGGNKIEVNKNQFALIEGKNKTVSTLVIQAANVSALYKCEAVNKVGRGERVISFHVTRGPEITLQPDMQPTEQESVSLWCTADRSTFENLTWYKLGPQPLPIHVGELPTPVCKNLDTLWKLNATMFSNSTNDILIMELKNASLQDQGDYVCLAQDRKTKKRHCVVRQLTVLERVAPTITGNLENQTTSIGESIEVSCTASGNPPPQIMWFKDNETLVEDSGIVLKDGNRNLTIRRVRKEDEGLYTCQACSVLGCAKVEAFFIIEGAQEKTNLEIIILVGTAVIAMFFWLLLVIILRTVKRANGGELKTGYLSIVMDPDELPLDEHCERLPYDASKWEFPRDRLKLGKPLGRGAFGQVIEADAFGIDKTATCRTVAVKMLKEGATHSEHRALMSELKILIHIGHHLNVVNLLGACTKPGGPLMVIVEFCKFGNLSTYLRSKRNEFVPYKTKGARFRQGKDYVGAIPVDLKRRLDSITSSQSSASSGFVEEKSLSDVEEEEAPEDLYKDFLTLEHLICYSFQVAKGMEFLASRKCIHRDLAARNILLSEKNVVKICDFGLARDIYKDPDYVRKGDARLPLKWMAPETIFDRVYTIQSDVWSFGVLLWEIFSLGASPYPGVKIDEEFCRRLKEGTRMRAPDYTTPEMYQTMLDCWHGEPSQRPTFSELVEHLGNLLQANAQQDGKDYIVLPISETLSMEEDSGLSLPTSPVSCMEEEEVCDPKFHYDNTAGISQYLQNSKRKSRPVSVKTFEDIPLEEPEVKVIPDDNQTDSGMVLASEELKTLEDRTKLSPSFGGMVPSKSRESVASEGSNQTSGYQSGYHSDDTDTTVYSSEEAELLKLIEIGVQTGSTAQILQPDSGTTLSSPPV
SAPK2b(h), sequence (Q15759 whole entry): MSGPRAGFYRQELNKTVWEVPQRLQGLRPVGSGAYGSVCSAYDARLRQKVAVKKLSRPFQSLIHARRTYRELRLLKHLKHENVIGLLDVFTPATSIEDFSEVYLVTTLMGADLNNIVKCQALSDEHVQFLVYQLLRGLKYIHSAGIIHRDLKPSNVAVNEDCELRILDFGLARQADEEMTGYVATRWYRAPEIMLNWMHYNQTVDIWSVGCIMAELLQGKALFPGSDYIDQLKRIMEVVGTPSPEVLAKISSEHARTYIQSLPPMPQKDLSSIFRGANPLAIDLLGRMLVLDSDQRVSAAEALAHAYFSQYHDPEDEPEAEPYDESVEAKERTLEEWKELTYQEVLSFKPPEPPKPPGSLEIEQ
PI3 Kinase (p110β/p85α)(h), sequence (P42338 whole entry): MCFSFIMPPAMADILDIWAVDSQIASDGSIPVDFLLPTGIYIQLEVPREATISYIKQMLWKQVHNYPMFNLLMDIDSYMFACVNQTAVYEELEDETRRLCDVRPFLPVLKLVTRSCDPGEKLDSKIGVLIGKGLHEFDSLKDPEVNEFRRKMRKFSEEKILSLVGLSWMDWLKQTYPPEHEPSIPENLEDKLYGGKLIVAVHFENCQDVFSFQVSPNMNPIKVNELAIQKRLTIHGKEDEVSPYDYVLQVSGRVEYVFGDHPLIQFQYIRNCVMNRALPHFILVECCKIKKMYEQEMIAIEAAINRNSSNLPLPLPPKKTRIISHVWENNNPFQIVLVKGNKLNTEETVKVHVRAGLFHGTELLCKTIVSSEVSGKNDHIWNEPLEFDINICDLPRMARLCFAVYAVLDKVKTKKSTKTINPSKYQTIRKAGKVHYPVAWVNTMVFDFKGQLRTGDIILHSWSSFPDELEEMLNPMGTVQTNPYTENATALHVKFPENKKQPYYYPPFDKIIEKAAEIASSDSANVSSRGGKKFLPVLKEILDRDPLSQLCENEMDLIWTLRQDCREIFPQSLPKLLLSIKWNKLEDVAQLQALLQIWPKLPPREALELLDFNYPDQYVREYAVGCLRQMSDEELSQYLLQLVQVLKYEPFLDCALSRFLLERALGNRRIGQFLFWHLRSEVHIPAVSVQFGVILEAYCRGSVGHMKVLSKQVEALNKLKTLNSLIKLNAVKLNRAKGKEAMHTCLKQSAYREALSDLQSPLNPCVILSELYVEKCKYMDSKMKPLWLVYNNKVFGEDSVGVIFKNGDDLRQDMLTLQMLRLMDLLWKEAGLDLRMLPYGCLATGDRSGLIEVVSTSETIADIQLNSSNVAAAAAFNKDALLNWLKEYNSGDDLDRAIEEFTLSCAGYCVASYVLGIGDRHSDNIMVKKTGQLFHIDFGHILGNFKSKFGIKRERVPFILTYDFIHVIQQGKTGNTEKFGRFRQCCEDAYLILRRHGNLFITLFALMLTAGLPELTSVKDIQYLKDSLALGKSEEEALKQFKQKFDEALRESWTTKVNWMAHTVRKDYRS
PI3 Kinase (p110β/p85α)(h), sequence (P27986 whole entry partner): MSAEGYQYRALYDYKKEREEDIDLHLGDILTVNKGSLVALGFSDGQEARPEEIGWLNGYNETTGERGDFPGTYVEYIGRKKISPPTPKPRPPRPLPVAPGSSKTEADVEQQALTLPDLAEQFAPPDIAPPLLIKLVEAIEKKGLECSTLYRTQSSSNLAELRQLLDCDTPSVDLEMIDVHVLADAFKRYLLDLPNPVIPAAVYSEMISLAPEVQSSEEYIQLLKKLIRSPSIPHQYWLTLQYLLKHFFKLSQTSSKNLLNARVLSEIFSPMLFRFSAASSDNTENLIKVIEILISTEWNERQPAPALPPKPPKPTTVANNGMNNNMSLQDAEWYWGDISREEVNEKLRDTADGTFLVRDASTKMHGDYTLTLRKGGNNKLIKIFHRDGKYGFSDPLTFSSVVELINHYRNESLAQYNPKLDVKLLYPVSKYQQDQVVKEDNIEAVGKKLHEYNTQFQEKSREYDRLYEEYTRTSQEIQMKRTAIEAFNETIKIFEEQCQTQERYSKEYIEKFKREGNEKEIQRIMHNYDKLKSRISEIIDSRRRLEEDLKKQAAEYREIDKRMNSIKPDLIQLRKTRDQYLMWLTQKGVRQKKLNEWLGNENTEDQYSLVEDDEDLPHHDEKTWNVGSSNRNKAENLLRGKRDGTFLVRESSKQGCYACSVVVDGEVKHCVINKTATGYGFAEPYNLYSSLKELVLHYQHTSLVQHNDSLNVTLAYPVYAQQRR
MAPKAP-K2(h), sequence (P49137 whole entry): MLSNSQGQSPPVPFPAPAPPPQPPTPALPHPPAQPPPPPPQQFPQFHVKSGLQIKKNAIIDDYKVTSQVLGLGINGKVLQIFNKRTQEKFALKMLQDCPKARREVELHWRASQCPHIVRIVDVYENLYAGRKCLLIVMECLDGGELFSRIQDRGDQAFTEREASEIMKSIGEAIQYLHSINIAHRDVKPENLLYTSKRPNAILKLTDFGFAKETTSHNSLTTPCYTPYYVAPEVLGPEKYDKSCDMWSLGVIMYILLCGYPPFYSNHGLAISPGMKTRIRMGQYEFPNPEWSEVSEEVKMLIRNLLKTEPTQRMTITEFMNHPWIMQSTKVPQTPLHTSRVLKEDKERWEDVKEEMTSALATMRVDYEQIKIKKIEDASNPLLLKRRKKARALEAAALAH
PDGFRβ(h), sequence (P09619 33-1106): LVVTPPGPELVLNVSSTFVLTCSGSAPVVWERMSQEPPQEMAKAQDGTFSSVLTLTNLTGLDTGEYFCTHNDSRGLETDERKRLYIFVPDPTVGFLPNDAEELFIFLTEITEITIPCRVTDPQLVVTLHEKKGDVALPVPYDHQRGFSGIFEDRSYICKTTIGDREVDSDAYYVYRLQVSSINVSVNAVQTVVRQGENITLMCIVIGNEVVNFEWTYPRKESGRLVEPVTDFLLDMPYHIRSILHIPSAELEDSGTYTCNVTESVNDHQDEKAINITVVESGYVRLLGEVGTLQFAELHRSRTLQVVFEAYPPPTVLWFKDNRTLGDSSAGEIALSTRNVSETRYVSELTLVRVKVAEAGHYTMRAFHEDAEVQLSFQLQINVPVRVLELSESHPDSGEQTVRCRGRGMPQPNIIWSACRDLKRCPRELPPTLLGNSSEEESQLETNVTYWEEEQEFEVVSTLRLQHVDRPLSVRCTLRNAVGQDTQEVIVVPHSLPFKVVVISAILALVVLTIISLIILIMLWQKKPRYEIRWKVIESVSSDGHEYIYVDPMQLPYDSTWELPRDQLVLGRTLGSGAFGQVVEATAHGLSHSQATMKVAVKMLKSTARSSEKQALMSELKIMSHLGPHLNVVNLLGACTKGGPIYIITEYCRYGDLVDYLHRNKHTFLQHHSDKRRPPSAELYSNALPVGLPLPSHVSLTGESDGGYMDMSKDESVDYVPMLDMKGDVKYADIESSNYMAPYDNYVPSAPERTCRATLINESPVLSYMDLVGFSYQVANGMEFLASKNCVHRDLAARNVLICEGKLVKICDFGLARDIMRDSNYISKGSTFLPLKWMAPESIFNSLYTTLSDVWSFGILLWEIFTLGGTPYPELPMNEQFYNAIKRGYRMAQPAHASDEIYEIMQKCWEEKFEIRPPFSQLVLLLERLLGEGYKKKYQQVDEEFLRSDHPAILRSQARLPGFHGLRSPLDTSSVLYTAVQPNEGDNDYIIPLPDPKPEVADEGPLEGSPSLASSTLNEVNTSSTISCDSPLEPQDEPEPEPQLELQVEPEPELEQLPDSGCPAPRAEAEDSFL

| Compound | EC50 (DoHH2; [2]) | IC50 (ASK1(h)) | IC50 (Abl(T315I)(h)) | IC50 (Abl(h)) | IC50 (BTK(h)) | IC50 (Bmx(h)) | IC50 (GSK3β(h)) | IC50 (IGF-1R(h)) | IC50 (IKKα(h)) | IC50 (IKKβ(h)) | IC50 (JAK3(h)) | IC50 (JNK2α2(h)) | IC50 (KDR(h)) | IC50 (Lck(h)) | IC50 (MAPKAP-K2(h)) | IC50 (MEK1(h)) | IC50 (PDGFRβ(h)) | IC50 (PDK1(h)) | IC50 (Pim-1(h)) | IC50 (Plk1(h)) | also measured |
| --- | --- | --- | --- | --- | --- | --- | --- | --- | --- | --- | --- | --- | --- | --- | --- | --- | --- | --- | --- | --- | --- |
| CCN(CC)CCOc1ccc(Nc2cc3c(cn2)cc(-c2ccccc2)c(=O)n3CC)nc1 [Compound 1, 7-[5-(2-Diethylamino-ethoxy)-pyridin-2-ylamino]-1-ethyl-3-phenyl-1H-[1, 6]naphthyridin-2-one] | < 1000 nM | > 1000 nM | 100 to 500 nM | < 10 nM | 10 to 100 nM | < 10 nM | > 1000 nM | > 1000 nM | > 1000 nM | > 1000 nM | > 1000 nM | > 1000 nM | 100 to 500 nM | < 10 nM | > 1000 nM | > 1000 nM | 100 to 500 nM | > 1000 nM | > 1000 nM | > 1000 nM | EC50 (DoHH2; DOHH-2, read-out: EC50 (Proliferation)): < 1000 nM; IC50 (SAPK2a(h)): 500 to 1000 nM; IC50 (SAPK2b(h)): > 1000 nM; IC50 (Src(1-530)(h)): < 10 nM; IC50 (Syk(h)): > 1000 nM; IC50 (Tie2(h)): 500 to 1000 nM; IC50 (mTOR(h)): > 1000 nM; IC50 (CDK9/cyclinT1(h)): > 1000 nM; IC50 [1]: > 1000 nM |
| CCn1c(=O)c(-c2ccccc2)cc2cnc(Nc3ncc(CCN(C)C)s3)cc21 [Compound 2, 7-[5-(2-Dimethylamino-ethyl)-thiazol-2-ylamino]-1-ethyl-3-phenyl-1H-[1,6]naphthyridin-2-one] | 1000 to 10000 nM | > 1000 nM | 500 to 1000 nM | 10 to 100 nM | 100 to 500 nM | 10 to 100 nM | > 1000 nM | > 1000 nM | > 1000 nM | > 1000 nM | > 1000 nM | > 1000 nM | 500 to 1000 nM | < 10 nM | > 1000 nM | > 1000 nM | 500 to 1000 nM | > 1000 nM | > 1000 nM | > 1000 nM | IC50 (SAPK2a(h)): > 1000 nM; IC50 (SAPK2b(h)): > 1000 nM; IC50 (Src(1-530)(h)): 10 to 100 nM; IC50 (Syk(h)): > 1000 nM; IC50 (Tie2(h)): > 1000 nM; IC50 (mTOR(h)): > 1000 nM; IC50 (CDK9/cyclinT1(h)): > 1000 nM; IC50 [1]: > 1000 nM |
